Results as given in patent EP0393640B1, “A monoclonal antibody recognizing C-terminus of ANP” (SHIONOGI SEIYAKU KABUSHIKI KAISHA trading under the name of …, priority 1989, dated 1990).
Ends that are not written are not given here.

Key:
Type in all cases: binding, mouse
[1] = system: AN117; experiment: Cross-reactivity of ANP-related polypeptides in the α-hANP radioimmunoassay with AN117; settings: ascitic fluid AN117A
Protocol: (§1) Using peptide and peptide fragment relating to α-hANP as a sample in α-hANP radioimmunoassay to be described in Example 5, cross reactivity was measured. It was confirmed that both of AN111 and AN117 recognize the C-terminus of α-hANP. Table 1 Assay buffer solution : 0.1 M phosphate buffer solution (pH 7.0) containing 0.372 g of disodium ethylenediamine tetraacetate, 0.063 g of cystine dihydrochloride, 0.262 g of ε-aminocaproic acid, 0.1g of sodium azide and 1 g of bovine serum albumin per liter. Dilute ascitic fluid : A[…] 110,000-fold diluted with Assay buffer solution or A[…] 62,000-fold diluted with Assay buffer solution. α-hANP standard : α-hANP serially two-fold diluted at a range of concentrations from 3.13 ng/ml to 100 ng/ml. 125 I -labelled α-hANP : 125I-labelled α-hANP (Amersham) diluted with Assay buffer solution up to approximately 3.7 KBq/ml. 1 % Bovine gamma globulin : dissolved in Assay buffer solution 37.5 % Polyethylene glycol : polyethylene glycol 6000 dissolved in Assay buffer solution without bovine serum albumin To a tube charged with 100 »l of α-hANP standard or a sample, 100 »l of 125I-labelled α-hANP, 100 »l of dilute ascitic fluid and 200 »l of 1 % bovine gamma globulin were added and the mixture was incubated overnight at 4 °C. […] After removing the supernatant, the radioactivity of the precipitate is measured by a gamma counter (Aloka, ARC-600 type)

[2] = system: AN111 as an immobilized antibody, ¹²⁵I-labelled KY-ANP-I; experiment: Cross-reactivity of ANP-related peptides in the sandwich radioimmunoassay (one-step); settings: one-step assay, AN111 immobilized on beads
From the text: Anti-α-ANP [17-28] monoclonal antibody produced by the above hybridoma clone AN111 or AN117 (the antibody is hereinafter referred to as AN111 or AN117) which was immobilized on beads was used as an immobilized antibody. As a labelled antibody, anti-α-hANP [1 -28] monoclonal antibody produced by hybridoma clone KY-ANP-I (ECACC 87082001, EP-A-0 306 309) (the antibody is hereinafter referred to as KY-ANP-I) which was labelled with 125I was used. By the above antibodies, a sandwich radioimmunoassay of α-hANP was established. In 0.05 M phosphate buffer (pH 7.4) containing the IgG fraction (100 »g/ml) of A[…] or A[…] prepared in Item 1 above are immersed polystyrene beads (Ichico, 3.2 mm diameter) and allowed to stand at 4 °C for 20 hr. […] Radioactivity of 125 I -labelled antibody bound to the solid phase was measured by a gamma counter. A standard curve was prepared by plotting a concentration of α-hANP standard at abscissa and the measured radioactivity at ordinate. An ANP concentration in plasma was calculated by applying the radioactivity from the plasma sample to the standard curve. […]

[3] = system: AN111; experiment: Cross-reactivity of ANP-related polypeptides in the α-hANP radioimmunoassay with AN111; settings: ascitic fluid AN111A
Protocol: as §1

β-hANP: antiparallel dimer of α-hANP (SLRRSSCFGGRMDRIGAQSGLGCNSFRY; ends and bridges not checked; also: antiparallel dimer of α-hANP; UniProt P01160 124-151, looked up)
Cross-reactivity (%) AN117 [1]: 136%
Cross-Reactivity (Molar %) [2]: 100 Molar %
Cross-reactivity (%) AN111 [3]: 142%
